# Data: patent publication US20060079453A1, “Hla binding peptides and their uses” (priority 2002, published 2006)
# No end group written: not given here.
# Target: HLA-DR DRB4*0101 (DR53) (Homo sapiens, UniProt P01903+P13762, G164S)
# Assay: biochemical
# Assay type: binding
# Settings: DRB4 *0101
row,Substance,IC50 [nM]
1,QHLCGSHLVEALYLV,1480
2,GLALLSEAVLRGQAL [GLALLSEAVLRGQAL],3.5
3,RLFDNASLRAHRLHQ,3210
4,MSYNLLGFLQRSSNT,4660
5,GSHLVEALYLVCGER,372
6,LQLHVDKAVSGLRSL,31
7,ISLLLIQSWLEPVQF,2.5

# Target: HLA-DR DRB1*1501 (DR15) (Homo sapiens, UniProt P01903+P01911)
# Assay: biochemical
# Assay type: binding
# Settings: DRBI *1501
row,Substance,IC50 [nM]
1,RLFDNASLRAHRLHQ,85
2,MSYNLLGFLQRSSNT,6.8
3,GSHLVEALYLVCGER,1350
4,LQLHVDKAVSGLRSL,2710
5,ISLLLIQSWLEPVQF,60

# Target: HLA-DR DRB1*0301 (DR3) (Homo sapiens, UniProt P01903+P01911, A100K/A102G/A103R/A169T/F55Y/I96L/K41T/L162R/M171V/P40S/Q125H/Q178H/Q39Y/R42S/S66N/T106N/T262R/W38E/Y61H)
# Sequence (P01903 26-254 limits assumed, other chains not shown): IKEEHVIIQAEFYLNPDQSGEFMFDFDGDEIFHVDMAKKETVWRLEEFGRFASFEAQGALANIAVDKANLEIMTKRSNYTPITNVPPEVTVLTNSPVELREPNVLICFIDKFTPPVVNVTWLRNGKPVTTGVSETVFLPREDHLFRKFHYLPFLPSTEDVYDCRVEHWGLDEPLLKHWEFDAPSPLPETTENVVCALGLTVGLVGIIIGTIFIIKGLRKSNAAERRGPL
# Assay: biochemical
# Assay type: binding
# Settings: not given
row,Substance,IC50 [nM]
1,QHLCGSHLVEALYLV,48600
2,GLALLSEAVLRGQAL [GLALLSEAVLRGQAL],816
3,RLFDNASLRAHRLHQ,97
4,MSYNLLGFLQRSSNT,108000
5,GSHLVEALYLVCGER,> 187000
6,LQLHVDKAVSGLRSL,22
7,ISLLLIQSWLEPVQF,27900

# Target: HLA-DQ DQA1*0501/B*0201 (DQ2) (Homo sapiens, UniProt P01909+P01920, A45G/A70V/D89A/E106A/E77G/E98D/H199R/L107V/N214S/P84L/P87L/T103K/T109R/T172A/T60S/V78E/V99I/Y58L/Y62S/Y69I/Y79F)
# Assay: biochemical
# Settings: not given
row,Substance,IC50 [nM]
1,QHLCGSHLVEALYLV,359
2,GLALLSEAVLRGQAL [GLALLSEAVLRGQAL],6740
3,IDVWLGGLAKNFLPY,> 4170
4,IDVWLGGLAENFLPY,13
5,GSHLVEALYLVCGER,677
6,LQLHVDKAVSGLRSL,7590
7,SAAPLRTITADTFRK,1100
8,ISLLLIQSWLEPVQF,5230
9,WKRMEVGQQAVEVWQ,159

# Target: HLA-DQ DQA1*0301/B*0302 (DQ8) (Homo sapiens, UniProt P01909+P01920, A209T/A45G/C70Q/D89A/DUP78-78/E183D/E77G/F237L/G63E/H199R/I129T/K197E/L178F/L74F/L98V/Q57E/Q76R/S185I/S97I/T217I/T49S/V73L/Y58L)
# Assay: biochemical
# Settings: not given
row,Substance,IC50 [nM]
1,QHLCGSHLVEALYLV,8410
2,GLALLSEAVLRGQAL [GLALLSEAVLRGQAL],17000
3,IDVWLGGLAENFLPY,138
4,RLFDNASLRAHRLHQ,> 36200
5,MSYNLLGFLQRSSNT,> 51200
6,GSHLVEALYLVCGER,2490
7,LQLHVDKAVSGLRSL,7840
8,SAAPLRTITADTFRK,> 46700
9,ISLLLIQSWLEPVQF,562
10,WKRMEVGQQAVEVWQ,12100

# Target: HLA-DQ DQA1*0301/B*0301 (DQ7) (Homo sapiens, UniProt P01909+P01920, A209T/C70Q/DUP78-78/E183D/F237L/G63E/I129T/K197E/L178F/L74F/L98V/Q57E/Q76R/S185I/S97I/T49S/V73L)
# Assay: biochemical
# Assay type: binding
# Settings: not given
row,Substance,IC50 [nM]
1,QHLCGSHLVEALYLV,2550
2,GLALLSEAVLRGQAL [GLALLSEAVLRGQAL],107
3,IDVWLGGLAENFLPY,204
4,GSHLVEALYLVCGER,> 89300
5,LQLHVDKAVSGLRSL,88
6,SAAPLRTITADTFRK,301
7,ISLLLIQSWLEPVQF,> 89300
8,WKRMEVGQQAVEVWQ,13700

# Same assay, conditions: read-out: DQB1*0301
row,Substance,IC50 [nM]
1,AAFAAAKTAAAFA,49

# Target: HLA-DR DRB1*0405 (DR4) (Homo sapiens, UniProt P01903+P01911, A100R/A169T/D86S/F76Y/I96L/K127E/L162R/M171V/N62H/P40V/Q125Y/R42H/S133A/S149N/S66Y/V115G/V209L/W38E)
# Assay: biochemical
# Assay type: binding
# Settings: DRB1 *0405
row,Substance,IC50 [nM]
1,QHLCGSHLVEALYLV,9820
2,GLALLSEAVLRGQAL [GLALLSEAVLRGQAL],1440
3,MSYNLLGFLQRSSNT,433
4,GSHLVEALYLVCGER,4610
5,LQLHVDKAVSGLRSL,13600
6,SAAPLRTITADTFRK,1460
7,ISLLLIQSWLEPVQF,0.86
8,WKRMEVGQQAVEVWQ,94

# Target: HLA-DR DRB3*0101 (DR52) (Homo sapiens, UniProt P01903+P79483)
# Assay: biochemical
# Assay type: binding
# Settings: not given
row,Substance,IC50 [nM]
1,QHLCGSHLVEALYLV,14800
2,GLALLSEAVLRGQAL [GLALLSEAVLRGQAL],> 38200
3,RLFDNASLRAHRLHQ,11400
4,MSYNLLGFLQRSSNT,51800
5,GSHLVEALYLVCGER,> 18700
6,LQLHVDKAVSGLRSL,1040
7,ISLLLIQSWLEPVQF,6760
8,WKRMEVGQQAVEVWQ,> 42200

# Same assay, conditions: read-out: DRB3 *0101
row,Substance,IC50 [nM]
1,AAFAAAKTAAAFA,20000

# Target: HLA-DR DRB1*0401 (DR4) (Homo sapiens, UniProt P01903+P01911, A100K/A169T/F76Y/I96L/K127E/L162R/M171V/N62H/P40V/Q125Y/R42H/S133A/S149N/S66Y/V115G/V209L/W38E)
# Assay: biochemical
# Assay type: binding
# Settings: DRB1 *0401
row,Substance,IC50 [nM]
1,QHLCGSHLVEALYLV,13000
2,GLALLSEAVLRGQAL [GLALLSEAVLRGQAL],11
3,RLFDNASLRAHRLHQ,77
4,GSHLVEALYLVCGER,8290
5,LQLHVDKAVSGLRSL,9.7
6,ISLLLIQSWLEPVQF,885
7,WKRMEVGQQAVEVWQ,24

# Same assay, conditions: read-out: DRB1 *0401
row,Substance,IC50 [nM]
1,YAR(15A)SQTTLKAKT,0.78
2,(15A)RQTTLKAAA,0.31
3,AAFAAAKTAAAFA,0.19

# Target: HLA-DR DRB5*0101 (DR51) (Homo sapiens, UniProt P01903+Q30154)
# Assay: biochemical
# Assay type: binding
# Settings: DRB5 *0101
row,Substance,IC50 [nM]
1,QHLCGSHLVEALYLV,32000
2,RLFDNASLRAHRLHQ,557
3,MSYNLLGFLQRSSNT,9
4,GSHLVEALYLVCGER,29300
5,LQLHVDKAVSGLRSL,76
6,ISLLLIQSWLEPVQF,> 9960
7,WKRMEVGQQAVEVWQ,4300

# Same assay, conditions: read-out: DRB5 *0101
row,Substance,IC50 [nM]
1,YAR(15A)SQTTLKAKT,1.4
2,YAR(15A)RQTTLKAAA,0.94
3,(15A)RQTTLKAAA,9.5
4,AAFAAAKTAAAFA,25

# Target: HLA-DR DRB1*0101 (DR1) (Homo sapiens, UniProt P01903+P01911, A100R/D57E/F55L/F60I/F76Y/I96L/L162R/M171V/P40L/Q125E/R42F/V115G/Y59C)
# Assay: biochemical
# Assay type: binding
# Settings: DRB1 *0101
row,Substance,IC50 [nM]
1,QHLCGSHLVEALYLV,170
2,GLALLSEAVLRGQAL [GLALLSEAVLRGQAL],83
3,RLFDNASLRAHRLHQ,89
4,GSHLVEALYLVCGER,525
5,ISLLLIQSWLEPVQF,184
6,WKRMEVGQQAVEVWQ,62

# Same assay, conditions: read-out: DRB1 *0101
row,Substance,IC50 [nM]
1,YAR(15A)SQTTLKAKT,2.4
2,(15A)RQTTLKAAA,4.2
3,AAFAAAKTAAAFA,1.3

# Target: HLA-DR DRB1*1302 (DR13) (Homo sapiens, UniProt P01903+P01911, A100E/A169T/K41T/L162R/M171V/P40S/Q125H/Q178H/Q39Y/Q99D/R42S/S66N/T262R/V115G/W38E/Y61H)
# Sequence (P01903 26-254 limits assumed, other chains not shown): as above
# Assay: biochemical
# Assay type: binding
# Settings: DRBI *1302
row,Substance,IC50 [nM]
1,QHLCGSHLVEALYLV,7620
2,GLALLSEAVLRGQAL [GLALLSEAVLRGQAL],1220
3,RLFDNASLRAHRLHQ,84
4,MSYNLLGFLQRSSNT,1330
5,GSHLVEALYLVCGER,8030
6,LQLHVDKAVSGLRSL,53
7,ISLLLIQSWLEPVQF,120
8,WKRMEVGQQAVEVWQ,159

# Target: HLA-DR DRB1*0701 (DR7) (Homo sapiens, UniProt P01903+P01911, A100R/A102G/A103Q/D57E/D86V/E43K/F76Y/K127E/L162R/M171V/P40G/Q125H/Q99D/R33Q/R42Y/R54Q/S133A/S66F/T210M/V115G/Y107V/Y59L/Y89S)
# Assay: biochemical
# Assay type: binding
# Settings: DRB1 *0701
row,Substance,IC50 [nM]
1,QHLCGSHLVEALYLV,86
2,GLALLSEAVLRGQAL [GLALLSEAVLRGQAL],4610
3,MSYNLLGFLQRSSNT,8870
4,GSHLVEALYLVCGER,560
5,LQLHVDKAVSGLRSL,3210
6,SAAPLRTITADTFRK,3650
7,ISLLLIQSWLEPVQF,83
8,WKRMEVGQQAVEVWQ,46100

# Same assay, conditions: read-out: DRB1 *0701
row,Substance,IC50 [nM]
1,AAFAAAKTAAAFA,67

# Target: HLA-DR DRB1*0802 (DR8) (Homo sapiens, UniProt P01903+P01911, A100R/A103L/A169T/F76Y/H45Y/I96F/K41T/L162R/M171V/P40S/Q125H/Q178H/Q39Y/Q99D/R218S/R42G/S66Y/V115G/W38E)
# Assay: biochemical
# Assay type: binding
# Settings: not given
row,Substance,IC50 [nM]
1,QHLCGSHLVEALYLV,> 54400
2,GLALLSEAVLRGQAL [GLALLSEAVLRGQAL],2000
3,RLFDNASLRAHRLHQ,15000
4,MSYNLLGFLQRSSNT,900
5,GSHLVEALYLVCGER,> 54400
6,LQLHVDKAVSGLRSL,801
7,SAAPLRTITADTFRK,28100
8,ISLLLIQSWLEPVQF,> 33300

# System: HLA-DR DRB5*0201
# Assay: not given
# Assay type: binding, human
# Settings: read-out: DRB5 *0201
row,Substance,IC50 [nM]
1,YAR(15A)SQTTLKAKT,48
2,YAR(15A)RQTTLKAAA,62
3,(15A)RQTTLKAAA,3100
4,AAFAAAKTAAAFA,6.4

# Target: HLA-DR DRB1*0901 (DR9) (Homo sapiens, UniProt P01903+P01911, A100R/A103E/D57H/D86V/F55Y/F60I/F76Y/I96F/K127E/L162R/M171V/P40D/Q125H/Q99R/R33Q/R42F/S133A/S66N/T210M/V115G/W38K/Y107V/Y59G/Y89S)
# Assay: biochemical
# Assay type: binding
# Settings: DRB1 *0901
row,Substance,IC50 [nM]
1,QHLCGSHLVEALYLV,7420
2,GLALLSEAVLRGQAL [GLALLSEAVLRGQAL],15100
3,RLFDNASLRAHRLHQ,23800
4,MSYNLLGFLQRSSNT,8970
5,GSHLVEALYLVCGER,5390
6,LQLHVDKAVSGLRSL,> 78900
7,WKRMEVGQQAVEVWQ,14700

# Target: HLA-DR DRB1*1101 (DR11) (Homo sapiens, UniProt P01903+P01911, A100R/A169T/A87E/I96F/K41T/L162R/M171V/P40S/Q125H/Q178H/Q39Y/Q99D/R42S/S66Y/T262R/V115G/W38E)
# Sequence (P01903 26-254 limits assumed, other chains not shown): as above
# Assay: biochemical
# Assay type: binding
# Settings: DRB1 *1101
row,Substance,IC50 [nM]
1,QHLCGSHLVEALYLV,> 10500
2,GLALLSEAVLRGQAL [GLALLSEAVLRGQAL],2580
3,MSYNLLGFLQRSSNT,3070
4,GSHLVEALYLVCGER,> 10500
5,LQLHVDKAVSGLRSL,910
6,ISLLLIQSWLEPVQF,2680
7,WKRMEVGQQAVEVWQ,512

# Same assay, conditions: read-out: DRB1 *1101
row,Substance,IC50 [nM]
1,YAR(15A)SQTTLKAKT,2.5
2,YAR(15A)RQTTLKAAA,1.2
3,(15A)RQTTLKAAA,1.8
4,AAFAAAKTAAAFA,4.6
